This note sets out measurements from patent publication US7659293B2, “α-Amino-N-hydroxy-acetamide derivatives” (Novartis AG, priority 2001, dated 2010).

The test concerns the target T1, MMP2 (gelatinase A) (Homo sapiens, UniProt P08253).
T1 construct: made in house; host or cells: baculovirus (pFAST BAC 1) in Tn insect cells, secreted
T1 sequence (P08253 110-660): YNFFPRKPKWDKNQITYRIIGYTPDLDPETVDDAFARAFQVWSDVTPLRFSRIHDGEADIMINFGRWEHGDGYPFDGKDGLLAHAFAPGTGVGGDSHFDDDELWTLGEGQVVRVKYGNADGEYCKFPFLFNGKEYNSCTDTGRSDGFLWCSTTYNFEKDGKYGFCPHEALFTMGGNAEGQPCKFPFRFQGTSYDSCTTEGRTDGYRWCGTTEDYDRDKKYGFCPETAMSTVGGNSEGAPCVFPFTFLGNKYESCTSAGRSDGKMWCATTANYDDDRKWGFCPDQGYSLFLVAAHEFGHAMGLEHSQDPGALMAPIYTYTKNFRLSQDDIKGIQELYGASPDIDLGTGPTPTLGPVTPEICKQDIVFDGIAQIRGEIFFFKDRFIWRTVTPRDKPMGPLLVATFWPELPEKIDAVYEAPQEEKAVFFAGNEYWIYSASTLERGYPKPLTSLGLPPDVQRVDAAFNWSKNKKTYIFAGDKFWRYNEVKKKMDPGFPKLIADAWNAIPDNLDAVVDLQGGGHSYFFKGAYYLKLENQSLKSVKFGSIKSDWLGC
As to the kind of experiment: MMP2 (gelatinase A) fluorogenic substrate inhibition assay. The test is classed as biochemical. The settings on record: mean ± SEM of three independent experiments. On the procedure: The inhibitory activities of compounds of formula I on MT1-MMP, MMP1 (collagenase 1) and MMP2 (gelatinase A) can be determined as follows:
Stock solutions of substrate (MCA-Pro-Leu-Gly-Leu-Dpa-Ala-Arg-NH2 (SEQ ID NO: 1), C. G. Knight, et al, FEBS lett., 296, 263-266, (1992)), are prepared in 100% DMSO at a concentration 1.0 mM.
Stock solutions of inhibitors are prepared in 100% DMSO. The inhibitor is diluted into the assays from a solution in 100% DMSO, and controls substitute an equal volume of DMSO so that the final DMSO concentration from inhibitor and substrate dilutions in all assays is 6.0%. Assays are performed in assay buffer (150 mM NaCl, 10 mM CaCl2, 50 mM Tris-Cl pH7.5, 0.05% Brij-35) containing 6.0% DMSO once the substrate and inhibitor are diluted into it. The substrate concentration used in the assays is […]. The test is carried out at 37° C. The fluorescence changes are monitored using an excitation wavelength of 320 nm and an emission wavelength of […]. The reaction mixture is added in duplicate to appropriate wells of a 96 well microfluor plate. The reaction mixture is preincubated with the inhibitor for 30 min, the reaction is started by the addition of MMP enzyme and the fluorescence intensity is measured for 10 min. A time point that is on a linear part of the curve is chosen to determine the activity. […]

Molecules are shown by their SMILES. Structures can show the parent of a compound that is named as a salt.

On to `CN(C)c1ccc(CN(CC(=O)NO)S(=O)(=O)c2ccc(OCC3CC3)cc2)cc1` [Example 2, 2-[(4-Cyclopropylmethoxy-benzenesulfonyl)-(4-dimethylamino-benzyl-amino]-N-hydroxy-acetamide HCl salt], for which the IC50 (commonly the point on the concentration scale where inhibition reaches its midpoint) came to 3.29 ± 0.49 nM.
